Laboratory results from US20080234262A1 (Wyeth, priority 2007, published 2008).
Read-outs that look alike come from different tables or passages of the source.

Columns and labels:
PI3K = PI3K (Homo sapiens, UniProt P42336); test: Fluorescence polarization assay for PI3K; assay type: biochemical;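 also: PI3K kinase reaction on PIP2 with ATP, 30-60 min, product sensed by GST-GRP with red probe in fluorescence polarization (mP), controls without enzyme and at zero time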
prostate line LNCap = test: In vitro cell culture growth assay (MTS), LNCap; assay type: cell-based, human; conditions: LNCap cells, three days after drug treatment;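 also: viable cell density read by absorbance at 490 nm, growth expressed as percent of vehicle-treated cells on the same plate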
breast line MDA468 = test: In vitro cell culture growth assay (MTS), MDA468; assay type: cell-based, human; conditions: MDA468 cells, three days after drug treatment
How it was run: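 Growth measured as percent of same-plate vehicle control by MTS metabolic dye conversion (A490). Breast MDA468 and prostate LNCap cells, plated a day ahead, were exposed to compounds for 3 days.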

Chain of PI3K (P42336 whole entry): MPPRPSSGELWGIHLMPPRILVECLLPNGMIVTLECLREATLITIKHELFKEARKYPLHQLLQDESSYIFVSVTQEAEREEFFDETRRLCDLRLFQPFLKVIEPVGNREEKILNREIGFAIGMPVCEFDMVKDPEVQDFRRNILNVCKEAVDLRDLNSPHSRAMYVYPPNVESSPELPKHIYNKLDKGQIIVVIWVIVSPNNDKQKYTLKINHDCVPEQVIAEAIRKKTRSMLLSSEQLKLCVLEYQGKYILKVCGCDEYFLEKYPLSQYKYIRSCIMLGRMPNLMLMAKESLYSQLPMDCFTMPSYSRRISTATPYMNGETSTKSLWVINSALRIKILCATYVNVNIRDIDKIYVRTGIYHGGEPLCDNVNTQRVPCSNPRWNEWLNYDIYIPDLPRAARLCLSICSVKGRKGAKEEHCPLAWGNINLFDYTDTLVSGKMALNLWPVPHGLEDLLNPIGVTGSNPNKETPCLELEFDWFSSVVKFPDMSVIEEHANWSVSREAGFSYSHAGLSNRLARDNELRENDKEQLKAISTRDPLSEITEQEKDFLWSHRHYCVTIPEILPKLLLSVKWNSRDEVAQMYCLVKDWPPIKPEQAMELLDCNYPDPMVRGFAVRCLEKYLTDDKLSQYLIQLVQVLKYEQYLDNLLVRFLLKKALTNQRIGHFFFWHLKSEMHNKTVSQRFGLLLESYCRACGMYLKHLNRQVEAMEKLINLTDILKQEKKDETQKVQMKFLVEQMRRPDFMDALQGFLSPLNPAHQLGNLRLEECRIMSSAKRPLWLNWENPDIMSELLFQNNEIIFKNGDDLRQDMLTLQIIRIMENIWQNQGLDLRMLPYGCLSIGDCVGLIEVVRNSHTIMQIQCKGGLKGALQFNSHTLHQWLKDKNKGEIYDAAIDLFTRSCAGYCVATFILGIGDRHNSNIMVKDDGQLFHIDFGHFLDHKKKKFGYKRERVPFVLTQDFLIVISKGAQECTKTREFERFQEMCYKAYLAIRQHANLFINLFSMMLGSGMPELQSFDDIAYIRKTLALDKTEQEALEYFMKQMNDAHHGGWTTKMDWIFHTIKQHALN
Chain of PI3K (P27986 whole entry partner): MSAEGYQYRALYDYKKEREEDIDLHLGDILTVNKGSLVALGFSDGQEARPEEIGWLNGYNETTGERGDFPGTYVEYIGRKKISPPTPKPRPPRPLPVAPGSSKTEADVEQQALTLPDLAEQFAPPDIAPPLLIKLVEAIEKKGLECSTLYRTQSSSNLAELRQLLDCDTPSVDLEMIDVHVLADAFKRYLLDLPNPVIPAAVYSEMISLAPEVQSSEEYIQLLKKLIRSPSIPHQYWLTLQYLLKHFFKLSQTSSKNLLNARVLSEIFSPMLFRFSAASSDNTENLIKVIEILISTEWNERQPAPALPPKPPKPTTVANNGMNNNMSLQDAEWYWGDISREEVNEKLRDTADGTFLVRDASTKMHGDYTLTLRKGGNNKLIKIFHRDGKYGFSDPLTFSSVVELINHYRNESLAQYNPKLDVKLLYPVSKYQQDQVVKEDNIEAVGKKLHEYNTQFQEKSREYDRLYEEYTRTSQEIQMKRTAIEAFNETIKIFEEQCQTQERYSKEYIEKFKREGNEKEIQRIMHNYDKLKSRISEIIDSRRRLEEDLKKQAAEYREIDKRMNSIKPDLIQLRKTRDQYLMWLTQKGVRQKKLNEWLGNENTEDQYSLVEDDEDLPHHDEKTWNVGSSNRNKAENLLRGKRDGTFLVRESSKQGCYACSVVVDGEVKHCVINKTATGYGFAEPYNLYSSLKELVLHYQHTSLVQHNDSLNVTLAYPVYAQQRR

Compound | IC50 (PI3K; PI3Kα, read-out: PI3Kα IC50) [nM] | IC50 (prostate line LNCap; Homo sapiens, LNCaP, 72 h) [nM] | IC50 (prostate line LNCap) [nM] | IC50 (breast line MDA468; Homo sapiens, 72 h) [nM] | IC50 (PI3K; PI3Kα IC50, PI3Kα) [nM] | IC50 (prostate line LNCap; Homo sapiens, 72 h) [nM] | IC50 (breast line MDA468) [nM]
CC(=O)NCc1cccc(-c2nc(N3CCOCC3)c3cnn(-c4ccccc4)c3n2)c1 [Compound 145] | 583 | 5500 | – | 21000 | – | – | –
Oc1cccc(CN2CCC(n3ncc4c(N5CCOCC5)nc(-c5ccc6[nH]ccc6c5)nc43)CC2)c1 [Example 76] | 522 | 900 | – | 1000 | – | – | –
c1ccc(CN2CCC(n3ncc4c(N5CCOCC5)nc(-c5cccc6[nH]ccc56)nc43)CC2)cc1 [Example 59] | 239 | 500 | – | 2600 | – | – | –
Oc1cccc(-c2nc(N3CCOCC3)c3cnn(C4CCN(Cc5ccc(Cl)cc5)CC4)c3n2)c1 [Compound 19] | 11 | 450 | – | 1700 | – | – | –
CC(C)(C)OC(=O)N1CCC[C@H](n2ncc3c(N4CCOCC4)nc(-c4ccc5[nH]ccc5c4)nc32)C1 [Compound 169] | 341 | 2000 | – | 12000 | – | – | –
O=C(Nc1cc(F)c(-c2nc(N3CCOCC3)c3cnn(C4CCN(C(=O)c5cccnc5)CC4)c3n2)cc1F)NC1CC1 [Compound 468, 1-cyclopropyl-3-(2,5-difluoro-4-{4-morpholin-4-yl-1-[1-(pyridin-3-ylcarbonyl)piperidin-4-yl]-1H-pyrazolo[3,4-d]pyrimidin-6-yl}phenyl)urea] | 3560 | 1000 | – | 2200 | – | – | –
CC(C)N1CCC(n2ncc3c(N4CCOCC4)nc(-c4ccc5[nH]ccc5c4)nc32)CC1 [Compound 488, 6-(1H-indol-5-yl)-1-(1-isopropylpiperidin-4-yl)-4-morpholin-4-yl-1H-pyrazolo[3,4-d]pyrimidine] | 3750 | 2500 | – | 2900 | – | – | –
COCCN1CCC(n2ncc3c(N4CCOCC4)nc(-c4ccc5[nH]ccc5c4)nc32)CC1 [Compound 491, 6-(1H-indol-5-yl)-1-[1-(2-methoxyethyl)piperidin-4-yl]-4-morpholin-4-yl-1H-pyrazolo[3,4-d]pyrimidine] | 5000 | 2400 | – | 4200 | – | – | –
NNC(=O)Nc1ccc(-c2nc(N3CCOCC3)c3cnn(-c4ccccc4)c3n2)cc1 [Compound 538, N-[4-(4-morpholin-4-yl-1-phenyl-1H-pyrazolo[3,4-d]pyrimidin-6-yl)phenyl]hydrazinecarboxamide] | 170 | 5200 | – | 8000 | – | – | –
O=C(Oc1ccccc1)N1CCC(n2ncc3c(N4CCOCC4)nc(-c4ccc5[nH]ccc5c4)nc32)CC1 [Compound 243, phenyl 4-[6-(1H-indol-5-yl)-4-morpholin-4-yl-1H-pyrazolo[3,4-d]pyrimidin-1-yl]piperidine-1-carboxylate] | – | – | – | 4300 | 535 | 1300 | –
Nc1ccc(-c2nc(N3CCOCC3)c3cnn(C4CCN(C(=O)c5cccnc5)CC4)c3n2)nc1 [Compound 679, 6-{4-morpholin-4-yl-1-[1-(pyridin-3-ylcarbonyl)piperidin-4-yl]-1H-pyrazolo[3,4-d]pyrimidin-6-yl}pyridin-3-amine] | 4040 | – | 45000 | – | – | – | > 60000
Oc1cccc(-c2nc(N3CCOCC3)c3cnn(CCN4CCCCC4)c3n2)c1 [Compound 126] | 60 | 3300 | – | 13000 | – | – | –
methyl [4-(1-{1-[(6-fluoropyridin-3-yl)methyl]piperidin-4-yl}-4-morpholin-4-yl-1H-pyrazolo[3,4-d]pyrimidin-6-yl) phenyl]carbamate [Compound 453] | 1200 | – | 900 | – | – | – | 6000
O=C1CCC(n2ncc3c(N4CCOCC4)nc(-c4ccc5[nH]ccc5c4)nc32)CC1 [Compound 143, 4-[6-(1H-indol-5-yl)-4-morpholin-4-yl-1H-pyrazolo[3,4-d]pyrimidin-1-yl]cyclohexanone] | 703 | 180 | – | 1700 | – | – | –
c1ccc(-n2ncc3c(N4CCOCC4)nc(-c4ccc(CN5CCOCC5)cc4)nc32)cc1 [Compound 130] | 822 | 60000 | – | 60000 | – | – | –

More lines, main results first:

IC50 (PI3K; PI3Kα, read-out: PI3Kα IC50) [nM] | IC50 (prostate line LNCap; Homo sapiens, LNCaP, 72 h) [nM] | IC50 (prostate line LNCap) [nM] | Compound | IC50 (breast line MDA468; Homo sapiens, 72 h) [nM] | IC50 (PI3K; PI3Kα IC50, PI3Kα) [nM] | IC50 (prostate line LNCap; Homo sapiens, 72 h) [nM] | IC50 (breast line MDA468) [nM]
38 | 25 | – | CC(C)C(=O)N1CCC(n2ncc3c(N4CCOCC4)nc(-c4ccc(NC(=O)Nc5ccncc5)cc4)nc32)CC1 [Compound 829, 1-{4-[1-(1-isobutyrylpiperidin-4-yl)-4-morpholin-4-yl-1H-pyrazolo[3,4-d]pyrimidin-6-yl]phenyl}-3-pyridin-4-ylurea] | 29 | – | – | –
585 | 500 | – | COC(=O)Nc1ccc(-c2nc(N3CCOCC3)c3cnn(C4CCN(CC(=O)c5ccccc5)CC4)c3n2)cc1 [Compound 457, methyl (4-{4-morpholin-4-yl-1-[1-(2-oxo-2-phenylethyl)piperidin-4-yl]-1H-pyrazolo[3,4-d]pyrimidin-6-yl}phenyl)carbamate] | 1800 | – | – | –
896 | 59 | – | COC(=O)N1CCC(n2ncc3c(N4CCOC(C)C4)nc(-c4ccc(NC(=O)NCCF)cc4)nc32)CC1 (stereo not drawn) [Compound 844, methyl 4-[6-(4-{[(2-fluoroethyl)carbamoyl]amino}phenyl)-4-(2-methylmorpholin-4-yl)-1H-pyrazolo[3,4-d]pyrimidin-1-yl]piperidine-1-carboxylate] | 700 | – | – | –
341 | 220 | – | CCCNC(=O)Nc1ccc(-c2nc(N3CCOCC3)c3cnn(C4CCN(Cc5ccccc5)CC4)c3n2)cc1 [Example 254, 1-{4-[1-(1-benzylpiperidin-4-yl)-4-morpholin-4-yl-1H-pyrazolo[3,4-d]pyrimidin-6-yl]phenyl}-3-propylurea] | 1500 | – | – | –
85 | 170 | – | NC(=O)Nc1ccc(-c2nc(N3CCOCC3)c3cnn(C4CCN(C(=O)c5ccccc5)CC4)c3n2)cc1 [Example 382, 1-{4-[1-(1-benzoylpiperidin-4-yl)-4-morpholin-4-yl-1H-pyrazolo[3,4-d]pyrimidin-6-yl]phenyl}urea] | 200 | – | – | –
33 | 27 | – | CNC(=O)Nc1ccc(-c2nc(N3CCOCC3)c3cnn(C4CCN(Cc5ccc(OC)nc5)CC4)c3n2)cc1 [Example 330, 1-[4-(1-{1-[(6-methoxypyridin-3-yl)methyl]piperidin-4-yl}-4-morpholin-4-yl-1H-pyrazolo[3,4-d]pyrimidin-6-yl)phenyl]-3-methylurea] | 700 | – | – | –
154 | 270 | – | CNC(=O)Nc1ccc(-c2nc(N3CCOCC3)c3cnn(C4CCN(C(=O)C(F)(F)F)CC4)c3n2)cc1 [Compound 763, 1-methyl-3-(4-{4-morpholin-4-yl-1-[1-(trifluoroacetyl)piperidin-4-yl]-1H-pyrazolo[3,4-d]pyrimidin-6-yl}phenyl)urea] | 500 | – | – | –
29 | 1200 | – | CNCCNC(=O)Nc1ccc(-c2nc(N3CCOCC3)c3cnn(C4CCN(Cc5cccnc5)CC4)c3n2)cc1 [Example 342, 1-[2-(methylamino)ethyl]-3-(4-{4-morpholin-4-yl-1-[1-(pyridin-3-ylmethyl)piperidin-4-yl]-1H-pyrazolo[3,4-d]pyrimidin-6-yl}phenyl)urea] | 1100 | – | – | –
30 | < 0.8 | – | COCCNCCc1ccc(NC(=O)Nc2ccc(-c3nc(N4CCOCC4)c4cnn(C5CCN(C(=O)OC)CC5)c4n3)cc2)cc1 [Compound 922, methyl 4-[6-(4-{[(4-{2-[(2-methoxyethyl)amino]ethyl}phenyl)carbamoyl]amino}phenyl)-4-morpholin-4-yl-1H-pyrazolo[3,4-d]pyrimidin-1-yl]piperidine-1-carboxylate] | 90 | – | – | –
370 | 29000 | – | O=C(NCCO)Nc1ccc(-c2nc(N3CCOCC3)c3cnn(C4CCN(CCCCO)CC4)c3n2)cc1 [Compound 746, 1-(4-{1-[1-(4-hydroxybutyl)piperidin-4-yl]-4-morpholin-4-yl-1H-pyrazolo[3,4-d]pyrimidin-6-yl}phenyl)-3-(2-hydroxyethyl)urea] | 30000 | – | – | –
140 | 700 | – | CNC(=O)Nc1ccc(-c2nc(N3CCOCC3)c3cnn(C4CCN(C(=O)OCCBr)CC4)c3n2)cc1 [Compound 804, 2-bromoethyl 4-(6-{4-[(methylcarbamoyl)amino]phenyl}-4-morpholin-4-yl-1H-pyrazolo[3,4-d]pyrimidin-1-yl)piperidine-1-carboxylate] | 800 | – | – | –
118 | 0.8 | – | COC(=O)N1CCC(n2ncc3c(N4CCOCC4)nc(-c4ccc(NC(=O)Nc5ccc(N6CCOCC6)nc5)cc4)nc32)CC1 [Compound 911, methyl 4-[4-morpholin-4-yl-6-(4-{[(6-morpholin-4-ylpyridin-3-yl)carbamoyl]amino}phenyl)-1H-pyrazolo[3,4-d]pyrimidin-1-yl]piperidine-1-carboxylate] | 10 | – | – | –
3550 | 3200 | – | COC(=O)Nc1ccc(-c2nc(N3CCOC(C)C3)c3cnn(C4CCN(C(=O)OC)CC4)c3n2)cc1 (stereo not drawn) [Compound 840, methyl 4-[6-{4-[(methoxycarbonyl)amino]phenyl}-4-(2-methylmorpholin-4-yl)-1H-pyrazolo[3,4-d]pyrimidin-1-yl]piperidine-1-carboxylate] | 10000 | – | – | –
1920 | – | 200 | COC(=O)Nc1ccc(-c2nc(N3CCOCC3)c3cnn(C4CCN(C(=O)c5ccccn5)CC4)c3n2)cc1 [Compound 685, methyl (4-{4-morpholin-4-yl-1-[1-(pyridin-2-ylcarbonyl)piperidin-4-yl]-1H-pyrazolo[3,4-d]pyrimidin-6-yl}phenyl)carbamate] | – | – | – | 580
